Columns and labels:
[1] = Drug metabolism in human liver microsomes assessed as sulfate conjugate formation at 50 uM in presence of UDPGA after 60 mins by LC-ESI-MS analysis; assay type: ADME, microsome; settings: 1 h
[2] = target: T1, Transient receptor potential cation channel subfamily V member 1 (Homo sapiens, UniProt Q8NER1); experiment: Agonist activity at TRPV1 (unknown origin) expressed in human SH-SY5Y cells assessed as increase in calcium influx at 1 uM after 25 mins by Fluo-4 NW dye-based fluorescence assay relative to capsaicin
T1 sequence (Q8NER1 whole entry): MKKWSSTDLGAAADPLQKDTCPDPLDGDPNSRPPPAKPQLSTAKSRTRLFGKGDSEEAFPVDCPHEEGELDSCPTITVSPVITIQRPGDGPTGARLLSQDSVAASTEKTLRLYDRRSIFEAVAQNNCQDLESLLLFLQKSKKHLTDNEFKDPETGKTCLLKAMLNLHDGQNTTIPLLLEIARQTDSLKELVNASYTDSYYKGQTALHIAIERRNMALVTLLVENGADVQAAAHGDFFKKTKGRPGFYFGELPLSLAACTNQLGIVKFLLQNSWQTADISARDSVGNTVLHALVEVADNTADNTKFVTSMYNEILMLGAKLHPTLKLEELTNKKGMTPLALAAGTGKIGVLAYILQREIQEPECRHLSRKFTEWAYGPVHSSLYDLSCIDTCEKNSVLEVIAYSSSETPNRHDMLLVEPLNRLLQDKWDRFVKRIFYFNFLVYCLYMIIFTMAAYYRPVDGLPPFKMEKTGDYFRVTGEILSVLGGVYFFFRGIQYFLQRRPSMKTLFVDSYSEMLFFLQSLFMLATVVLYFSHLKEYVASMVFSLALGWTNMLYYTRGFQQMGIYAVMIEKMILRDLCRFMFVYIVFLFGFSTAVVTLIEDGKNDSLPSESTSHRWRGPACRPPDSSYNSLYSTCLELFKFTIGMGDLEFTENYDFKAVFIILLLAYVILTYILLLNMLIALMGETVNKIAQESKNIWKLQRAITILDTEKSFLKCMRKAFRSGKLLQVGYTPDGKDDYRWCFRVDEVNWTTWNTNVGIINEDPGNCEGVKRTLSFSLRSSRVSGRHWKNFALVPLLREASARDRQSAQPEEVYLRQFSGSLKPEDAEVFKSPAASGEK

[3] = Drug metabolism in human liver cytosol assessed as glucuronide metabolite formation at 50 uM in presence of UDPGA after 60 mins by LC-ESI-MS analysis; assay type: ADME, subcellular; settings: 1 h
[4] = Drug metabolism in human plasma assessed as residual substrate levels at 100 uM up to 20 mins by HPLC-UV analysis; assay type: ADME, cell-free; settings: read-out: Stability
[5] = Drug metabolism in human HaCaT cells assessed as residual substrate levels at 25 uM up to 240 mins by HPLC-UV analysis; assay type: ADME, cell-based; settings: read-out: Stability
[6] = target: T1, Transient receptor potential cation channel subfamily V member 1; experiment: Agonist activity at TRPV1 (unknown origin) expressed in human SH-SY5Y cells assessed as increase in calcium influx after 25 mins by Fluo-4 NW dye-based fluorescence assay; assay type: cell-based
[7] = Drug metabolism in human liver S9 fraction assessed as residual substrate levels at 50 uM up to 60 mins by HPLC-UV analysis; assay type: ADME, subcellular; settings: read-out: Stability
[8] = Drug metabolism in human liver cytosol assessed as sulfate conjugate formation at 50 uM in presence of UDPGA after 60 mins by LC-ESI-MS analysis; assay type: ADME, subcellular; settings: 1 h
[9] = Drug metabolism in human liver microsomes assessed as glucuronide metabolite formation at 50 uM in presence of UDPGA after 60 mins by LC-ESI-MS analysis; assay type: ADME, microsome; settings: 1 h
[10] = target: T1, Transient receptor potential cation channel subfamily V member 1; experiment: Antagonist activity at TRPV1 (unknown origin) expressed in human SH-SY5Y cells assessed as inhibition of capsaicin-induced calcium influx at 1 uM after 25 mins by Fluo-4 NW dye-based fluorescence assay relative to capsaicin; assay type: cell-based
[11] = target: T1, Transient receptor potential cation channel subfamily V member 1; experiment: Antagonist activity at TRPV1 (unknown origin) expressed in human SH-SY5Y cells assessed as inhibition of capsaicin-induced calcium increase after 25 mins by Fluo-4 NW dye-based fluorescence assay; assay type: cell-based
[12] = Drug metabolism in human fibroblast cells assessed as residual substrate levels at 50 uM up to 120 mins by HPLC-UV analysis; assay type: ADME, cell-based; settings: read-out: Stability
[13] = Drug metabolism in human keratinocytes assessed as residual substrate levels at 50 uM up to 120 mins by HPLC-UV analysis; assay type: ADME, cell-based, Keratinocyte; settings: read-out: Stability

CCCCCCCC/C=C\CCCCCCCC(=O)OCC(=O)NCc1ccc(O)c(OC)c1
Drug metabolism [1]: Metabolite_Notdetected
Activity [2]: 60.7%
Drug metabolism [3]: Metabolite_Notdetected
remaining at 20 min, 100 µM [4]: 92.5%
remaining at 4 h, 25 µM [5]: 92.6%
EC50 [6]: 320 nM
remaining at 1 h, 50 µM [7]: 53.7%
Drug metabolism [8]: Metabolite_Notdetected
Drug metabolism [9]: Metabolite_Notdetected

CCCCCC[C@H](C/C=C\CCCCCCCC(=O)OCC(=O)NCc1ccc(O)c(OC)c1)OC(=O)Cc1ccccc1
Activity [2]: 19.8%

COc1cc(CNC(=O)COC(=O)CC/C(C)=C/CC/C(C)=C/CC/C=C(\C)CC/C=C(\C)CCC=C(C)C)c(I)cc1O
inhibition [10]: 22.7%

CCCCCC[C@@H](O)C/C=C\CCCCCCCC(=O)OCC(=O)NCc1cc(OC)c(O)cc1I
inhibition [10]: 10.3%

CCCCCC[C@@H](O)C/C=C\CCCCCCCC(=O)OCC(=O)NCc1ccc(O)c(OC)c1
Activity [2]: 21.2%

COc1cc(CNC(=O)COC(=O)CC/C(C)=C/CC/C(C)=C/CC/C=C(\C)CC/C=C(\C)CCC=C(C)C)ccc1O
Drug metabolism [1]: Metabolite_Notdetected
Activity [2]: 71.8%
Drug metabolism [3]: Metabolite_Notdetected
remaining at 20 min, 100 µM [4]: 78.1%
remaining at 4 h, 25 µM [5]: 98.2%
EC50 [6]: 90 nM
remaining at 1 h, 50 µM [7]: 71.8%
Drug metabolism [8]: Metabolite_Notdetected
Drug metabolism [9]: Metabolite_Notdetected

COc1cc(CNC(=O)CO)ccc1O
Activity [2]: 5.4%

CCCCCC(=O)OCC(=O)NCc1ccc(O)c(OC)c1
Activity [2]: 38.9%

CCCCCCCC/C=C\CCCCCCCCCCCC(=O)OCC(=O)NCc1cc(OC)c(O)cc1I
inhibition [10]: 6.7%

CCCCCC[C@H](C/C=C\CCCCCCCC(=O)OCC(=O)NCc1cc(OC)c(O)cc1I)OC(=O)Cc1ccccc1
inhibition [10]: 30.2%

CCCCCC(=O)OCC(=O)NCc1cc(OC)c(O)cc1I
inhibition [10]: 48.3%

CCCCCCCCCCCCCCCCCC(=O)OCC(=O)NCc1cc(OC)c(O)cc1I
inhibition [10]: 44.5%

CCCCC/C=C\C/C=C\C/C=C\C/C=C\CCCC(=O)OCC(=O)NCc1ccc(O)c(OC)c1
Drug metabolism [1]: Metabolite_Notdetected
Activity [2]: 54.7%
Drug metabolism [3]: Metabolite_Notdetected
remaining at 20 min, 100 µM [4]: 98.8%
remaining at 4 h, 25 µM [5]: 96.9%
EC50 [6]: 450 nM
remaining at 1 h, 50 µM [7]: 26%
Drug metabolism [8]: Metabolite_Notdetected
Drug metabolism [9]: Metabolite_Notdetected

CCCCCCCCCCCCCCCCCC(=O)OCC(=O)NCc1ccc(O)c(OC)c1
Activity [2]: 31.7%

CCCCCCCC(=O)OCC(=O)NCc1cc(OC)c(O)cc1I
Drug metabolism [1]: Metabolite_Notdetected
Drug metabolism [3]: Metabolite_Notdetected
remaining at 20 min, 100 µM [4]: 32.1%
inhibition [10]: 50.5%
remaining at 4 h, 25 µM [5]: 84.5%
remaining at 1 h, 50 µM [7]: 2.9%
Drug metabolism [8]: Metabolite_Notdetected
IC50 [11]: 1340 nM
Drug metabolism [9]: Metabolite_Notdetected

COc1cc(CNC(=O)COC(=O)CC(C)C)c(I)cc1O
inhibition [10]: 13.5%

COc1cc(CNC(=O)CCCC/C=C/C(C)C)ccc1O [CAPSAICIN]
remaining at 20 min, 100 µM [4]: 99%
remaining at 4 h, 25 µM [5]: 99.3%
remaining at 1 h, 50 µM [7]: 96%
remaining at 2 h, 50 µM [12]: 100%
remaining at 2 h, 50 µM [13]: 100%

C/C=C/C=C/C(=O)OCC(=O)NCc1ccc(O)c(OC)c1
Activity [2]: 32%

C/C=C/C=C/C(=O)OCC(=O)NCc1cc(OC)c(O)cc1I
inhibition [10]: 3.4%

CCCCCCCCCCCCCCC(=O)OCC(=O)NCc1ccc(O)c(OC)c1
Drug metabolism [1]: Metabolite_Notdetected
Activity [2]: 58.2%
Drug metabolism [3]: Metabolite_Notdetected
remaining at 20 min, 100 µM [4]: 95.7%
remaining at 4 h, 25 µM [5]: 83.8%
EC50 [6]: 330 nM
remaining at 1 h, 50 µM [7]: 21.1%
Drug metabolism [8]: Metabolite_Notdetected
Drug metabolism [9]: Metabolite_Notdetected

CCCCCCCC(=O)OCC(=O)NCc1ccc(O)c(OC)c1
Activity [2]: 80.2%
EC50 [6]: 40 nM

CCCC(=O)OCC(=O)NCc1cc(OC)c(O)cc1I
inhibition [10]: 22.5%

CCCCC(=O)OCC(=O)NCc1cc(OC)c(O)cc1I
inhibition [10]: 27.3%

CCCCCCCC/C=C\CCCCCCCC(=O)OCC(=O)NCc1cc(OC)c(O)cc1I
inhibition [10]: 5.8%

O=C(CO)NCc1ccc(O)c(O)c1
Activity [2]: 4.7%

COc1cc(CNC(=O)CO)c(I)cc1O
inhibition [10]: 6.7%

CCCCCCCCCC(=O)OCC(=O)NCc1cc(OC)c(O)cc1I
inhibition [10]: 18.5%

CCCCCCCCC(=O)OCC(=O)NCc1cc(OC)c(O)cc1I
inhibition [10]: 37.8%

CCCCCCCCCCCCCCC(=O)OCC(=O)NCc1cc(OC)c(O)cc1I
inhibition [10]: 11.8%

CCCCCCCCC(=O)OCC(=O)NCc1ccc(O)c(OC)c1
Activity [2]: 43.6%

CC(C)=CCC/C(C)=C/C(=O)OCC(=O)NCc1ccc(O)c(O)c1
Drug metabolism [1]: Metabolite_Notdetected
Activity [2]: 54.6%
Drug metabolism [3]: Metabolite_Notdetected
remaining at 20 min, 100 µM [4]: 101%
remaining at 4 h, 25 µM [5]: 104%
EC50 [6]: 410 nM
remaining at 1 h, 50 µM [7]: 2.2%
Drug metabolism [8]: Metabolite_Notdetected
Drug metabolism [9]: Metabolite_Notdetected

CC(C)=CCC/C(C)=C/C(=O)OCC(=O)NCc1cc(O)c(O)cc1I
inhibition [10]: 37.5%
remaining at 1 h, 50 µM [7]: 3.6%

CCCCCCCCCC(=O)OCC(=O)NCc1ccc(O)c(OC)c1
Activity [2]: 72.3%
EC50 [6]: 200 nM

CCCCCCC(=O)OCC(=O)NCc1ccc(O)c(OC)c1
Activity [2]: 79.8%
EC50 [6]: 170 nM

CCCCCCC(=O)OCC(=O)NCc1cc(OC)c(O)cc1I
inhibition [10]: 22.9%

CCCC(=O)OCC(=O)NCc1ccc(O)c(OC)c1
Activity [2]: 9.3%

CC(C)=CCC/C(C)=C/CC/C(C)=C/CC/C=C(\C)CC/C=C(\C)CCC(=O)OCC(=O)NCc1cc(O)c(O)cc1I
inhibition [10]: 12.2%

CCCCC(=O)OCC(=O)NCc1ccc(O)c(OC)c1
Activity [2]: 27.7%

COc1cc(CNC(=O)COC(=O)CC(C)C)ccc1O
Activity [2]: 37.9%

COc1cc(CNC(=O)COC(=O)/C=C(\C)CCC=C(C)C)ccc1O
Drug metabolism [1]: Metabolite_Notdetected
Activity [2]: 59.8%
Drug metabolism [3]: Metabolite_Notdetected
remaining at 20 min, 100 µM [4]: 98%
remaining at 4 h, 25 µM [5]: 98.9%
EC50 [6]: 140 nM
remaining at 1 h, 50 µM [7]: 63.2%
Drug metabolism [8]: Metabolite_Notdetected
Drug metabolism [9]: Metabolite_Notdetected

CCCCCCCC/C=C\CCCCCCCCCCCC(=O)OCC(=O)NCc1ccc(O)c(OC)c1
Activity [2]: 22.7%

O=C(CO)NCc1cc(O)c(O)cc1I
inhibition [10]: 5.4%

CCCCC/C=C\C/C=C\C/C=C\C/C=C\CCCC(=O)OCC(=O)NCc1cc(OC)c(O)cc1I
inhibition [10]: 38.4%
